Test results published in patent publication US12128079B2, “Enteric aerobization therapy” (LPOXY THERAPEUTICS, INC., priority 2021, dated 2024).
“Also recorded” adds a separate entry of the source. Where two headings read alike, the source gives them in different places.

Columns and labels:
[1] = up to the maximum bolus tested, 200 microliters every 6 hours (8 mL/kg per bolus; 32 mL/kg/day)
Description: In a separate experiment using the above conditions the tolerance of bolus injection of 100% oxygen gas was tested.

[2] = test system: Clostridioides difficile ATCC 43255; conditions: for clinical severity / clinical observations versus infection control group: FIGS. 7-10; for animals showing clinical signs of infection (recurrence) in the 2nd week after inoculation and treatment: days 8-14; for survival: mice followed 14 days after inoculation, treatment day 0 to day 4; for onset of action / cure rate: mouse CDI model; for cure rate: 14 days after inoculation
Description: Thirty C57BL/6 female mice (18-22 g) fitted with duodenal catheters externalized and fitted with access button ports were purchased from Charles River Laboratories and singly housed in a temperature and humidity-controlled room with a 12-hour light cycle. The mice were divided into 3 groups of 10. All procedures used in these experimental protocols were in compliance with the Animal Welfare Act, the Guide for the Care and Use of Laboratory Animals, and the Office of Laboratory Animal Welfare.
The mice were pretreated with an antibiotic cocktail in their drinking water for 8 consecutive days. This antibiotic cocktail was composed of 1% glucose, 500 mcg/mL kanamycin, 44 mcg/mL gentamicin, 1062.5 units per milliliter colistin, 269 mcg/mL metronidazole, 156 mcg/mL ciprofloxacin, 100 mcg/mL ampicillin, and 56 mcg/mL vancomycin. The antibiotic cocktail and drinking water were replaced every 2 to 3 days. Five days prior to infection the antibiotic water was removed and normal drinking water was provided to the animals. Three days prior to infection the animals received a single dose of clindamycin 10 mg per kilogram via oral administration in a volume of 10 mL per kilogram.
On study Day 0 mice were inoculated with the bacterial suspension of 5×10^5 CFU Clostridioides difficile ATCC 43255 via oral gavage. Eight hours after inoculation administration of vehicle, antibiotic control, and test article was initiated according to the following. The vehicle a.k.a. infection control group of 10 mice received 80 μL per hour 100% pure nitrogen gas via duodenal catheter. The infection control group of 10 mice received 50 mg/kg vancomycin via oral gavage once daily. […] Administration was continued from study day 0 to study day 4, a total of 5 days. The mice were followed for 14 days after inoculum recording daily weights and clinical observations. Animals that appeared severely moribund were euthanized. At the end of the study all animals were humanely euthanized.

O=O [EAT, oxygen]
adverse effects of bolus injection [1]: No adverse effects were observed | clinical severity / clinical observations versus infection control group [2]: fewer sick animals compared to the infection control group; also recorded: mildly ill compared to the infection control group | clinical severity / clinical observations versus infection control group ([2]; listed as Enteric aerobization therapy): reduces the severity of disease, accelerates recovery | animals showing clinical signs of infection (recurrence) in the 2nd week after inoculation and treatment [2]: no recurrent infections | adverse effects due to gas infusion ([2]; infusion via duodenal catheter 3.2 mL/kg/hr, 76.8 mL/kg/day): no adverse effects | survival [2]: 100% | onset of action [2]: slower onset of action | cure rate [2]: 100%

CN[C@H](CC(C)C)C(=O)N[C@H]1C(=O)N[C@@H](CC(N)=O)C(=O)N[C@H]2C(=O)N[C@H]3C(=O)N[C@H](C(=O)N[C@H](C(=O)O)c4cc(O)cc(O)c4-c4cc3ccc4O)[C@H](O)c3ccc(c(Cl)c3)Oc3cc2cc(c3O[C@@H]2O[C@H](CO)[C@@H](O)[C@H](O)[C@H]2O[C@H]2C[C@](C)(N)[C@H](O)[C@H](C)O2)Oc2ccc(cc2Cl)[C@H]1O [vancomycin, reference compound]
animals showing clinical signs of infection (recurrence) in the 2nd week after inoculation and treatment [2]: 70% | animals showing clinical signs of infection (recurrence) in the 2nd week after inoculation and treatment ([2]; listed as antibiotic control group): Seventy | survival [2]: 100% | onset of action [2]: more rapid onset of action | cure rate [2]: 30%
